Data taken from US4007201A, “Novel pyrazole derivatives” (Kyorin Pharmaceutical Co. Ltd., priority 1975, dated 1977).

Experiments:
[1] = system: liver glycogen level in rats loaded with glucose; assay: Liver glycogen level in rats loaded with glucose; format: in vivo, male Sprague Dawley rats; conditions: oral in 40% glucose solution; 3 hours
Description: (§1) The animals used for the pharmacological studies were male Sprague Dawley rats exept otherwise noted. 1. Hypoglycemic activity in non-diabetic rats (screening test)
The rats were fasted for 16 - 18 hours, and then the compound 4 suspended in 40% glucose solution was orally administered (5 ml/kg of the suspension per body weight). Glycogen content in the liver was determined at 3 hours after the administration.

[2] = system: blood glucose level in alloxan diabetic rats; assay: Hypoglycemic effect in alloxan diabetic rats; format: in vivo, male Sprague Dawley rats; conditions: for Hypoglycemic effect in alloxan diabetic rats (in words): oral
Description: (§2) These new compounds of the present invention are very useful as anti-diabetic agents, which is supported from the following pharmacological studies. The animals used for the pharmacological studies were male Sprague Dawley rats exept otherwise noted. 1. Hypoglycemic activity in non-diabetic rats (screening test)
(§3) Alloxan diabetic rats were obtained as follows. Namely, 2.5% fresh solution of alloxan (50mg/kg) was injected into the tail vein of male rats, and the rats were daily injected with insulin (1-4 units/day) from the 7th day after the administration of alloxan. The alloxan diabetic rats which were survived for more than 2 months with daily injection of insulin were used. The alloxan diabetic rats were fasted for 24 hours after the last treatment with insulin, and then the compound of the present invention was orally administered. The blood glucose levels were determined by the micro method of Momose before and 2, 4 and 6 hours after the administration.

[3] = system: elevated blood glucose levels in adrenalectomized rats induced by adrenalin; assay: Adrenalin-induced hyperglycemia in adrenalectomized rats; format: in vivo, male Sprague Dawley rats; conditions: 4 mg/kg; adrenalin (50 mg/kg) subcutaneous
[4] = system: serum FFA level in non-diabetic rats; assay: Serum FFA level in non-diabetic rats, oral administration for 10 days; format: in vivo, male Sprague Dawley rats
Description: as §2
The compound suspended in 1% CMC was orally administered once a day for 10 days to healthy rats weighing 140-160g. The rats were fasted for 16-18 hours prior to the last administration. Blood samples were taken at 90 minutes after the last administration, and the blood glucose and serum FFA levels were determined, respectively.

[5] = system: serum FFA level in alloxan diabetic rats; assay: Serum FFA level in alloxan diabetic rats, 10 consecutive days; format: in vivo, male Sprague Dawley rats
Description: as §2, §3
(§4) The alloxan diabetic rats which were prepared and then preserved for 6 months with insulin as described in the previous experiment were used.

Acute toxicity in rats = format: in vivo
Excerpt: (§5) Thus, the toxicity of the present compound was considered to be extremely low.

[6] = system: blood glucose level in adrenalectomized rats; assay: Hypoglycemic effect in adrenalectomized rats; format: in vivo, male Sprague Dawley rats; conditions: for Reduction % from control / Blood glucose: 2 hours; for Blood glucose: ± SE
Excerpt: as §2
The rats were adrenalectomized (both left and right adrenal glands) and were bred for 6-7 days by using 1% saline solution as for drinking water. The adrenalectomized rats were then fasted for 16-18 hours prior to the experiment. Glucose loading (100 mg/150g body weight) was performed by a subcutaneous administration of glucose solution on the back of the rats. Immediately after the glucose loading, the compound 4 suspended in 1% CMC was orally administered. Two hours after the oral administration, blood was obtained from the vena cava candalis of the rats under anesthesia with sodium pentobarbital. Blood glucose level was determined by the method of Momose.

[7] = system: elevated blood glucose levels in adrenalectomized rats induced by hydrocortisone acetate; assay: Hydrocortisone acetate-induced hyperglycemia in adrenalectomized rats; format: in vivo, male Sprague Dawley rats; conditions: 4 mg/kg; hydrocortisone acetate intravenous
[8] = system: serum FFA level in alloxan diabetic rats; assay: Serum FFA level in alloxan diabetic rats loaded with much quantity of glucose; format: in vivo, male Sprague Dawley rats; conditions: compound 4 12.5 and 100 mg/kg, phenformin 100mg/kg; oral with 2g/kg of glucose; 3 hours
Description: as §2
Respective dose of the compound 4 (12.5 and 100 mg/kg) together with 2g/kg of glucose was orally administered to the alloxan diabetic rats.

[9] = system: blood glucose level in non-diabetic rats; assay: Blood glucose level in non-diabetic rats at 90 minutes; format: in vivo, male Sprague Dawley rats; conditions: 100 mg/kg oral
Description: as §2
The rats were fasted for 16-18 hours, and those weighing 130-160g were used. The compound 4 suspended in 1% CMC was orally administered to the fasted rats, and at 90 minutes after administration blood was drawn from the […] vena cava under anesthesia with sodium pentobarbital. The blood glucose level was determined by the method of Momose, and the serum FFA level was determined by the method of Itaya and Ui as described in J. Lipid Res., 6, 16 (1965), respectively.

Acute toxicity in mice = format: in vivo
Excerpt: as §5

[10] = system: blood glucose level in non-diabetic rats; assay: Synergistic effect on the insulin activity in non-diabetic rats; format: in vivo, male Sprague Dawley rats; conditions: insulin 0.1 unit/kg s.c.; compound 4 25 mg/kg oral
Description: as §1
The blood glucose levels in the non-diabetic rats were respectively determined after a subcutaneous injection of insulin (0.1 unit/kg), after an oral administration of the compound 4 (25 mg/kg), and after simultaneous administrations of insulin and the compund 4.

[11] = system: serum cholesterol level in alloxan diabetic rats; assay: Serum cholesterol level in alloxan diabetic rats, 10 consecutive days; format: in vivo, male Sprague Dawley rats
Description: as §2, §3, §4

[12] = system: serum triglyceride level in alloxan diabetic rats; assay: Serum triglyceride level in alloxan diabetic rats, 10 consecutive days; format: in vivo, male Sprague Dawley rats
Description: as §1, §3, §4

[13] = 100 mg/kg, 10 consecutive days, control = 100
[14] = maximum dose technically possible

Cc1cc(C)n(C(=O)CNS(=O)(=O)c2ccc(Cl)cc2)n1 [Example 4, 1-(N-p-chlorobenzenesulfonyl-glycyl)-3,5-dimethylpyrazole]
Effect on the liver glycogen level [1]: significantly reduced the liver glycogen level (p<0.001) | Blood glucose before administration ([2]; 100 mg/kg oral group, before administration (baseline), ± SE): 352.1 ± 31.6 mg% | Blood glucose 2 hours ([2]; 100 mg/kg oral, 2 hours, ± SE): 267.6 ± 34.3 mg% | Blood glucose 4 hours ([2]; 100 mg/kg oral, 4 hours, ± SE): 172.4 ± 35.1 mg% | Blood glucose 6 hours ([2]; 100 mg/kg oral, 6 hours, ± SE): 97.8 ± 13.4 mg% | Hypoglycemic effect in alloxan diabetic rats (in words) [2]: could be observed, and it lasted so longer than that of phenformin (phenethylbiguanide) as to be potent even at 6 hours after the administration | Hypoglycemic activity against hyperglycemia induced by adrenalin [3]: particularly effective against the hyperglycemia induced by adrenalin | Serum FFA levels ([4]; 0.8 mg/kg oral once a day): 46.8 ± 5.1 μ Eq/dl | Effect on serum FFA level (in words) ([4]; 0.8 mg/kg/day oral): significantly lowered the serum FFA level even at a low dose (0.8mg/kg/day) | Serum FFA levels ([4]; 3.1 mg/kg oral once a day): 35.9 ± 2.9 μ Eq/dl | Serum FFA levels ([4]; 12.5 mg/kg oral once a day): 27.1 ± 1.5 μ Eq/dl | Serum FFA levels ([4]; 50.0 mg/kg oral once a day): 27.9 ± 1.5 μ Eq/dl | FFA ([5]; 100 mg/kg, 10 consecutive days): 28.5 ± 7.6 μ Eq/dl serum | FFA, relative to control (100) [5, 13]: 44.0 | Effect on serum FFA level, 10 days (in words) ([5]; oral, 10 days): significantly reduced | Maximum oral dose without death (Acute toxicity in rats; [14]): about 17 g/kg | Mortality (Acute toxicity in rats; oral, up to about 17g/kg): no mice or rats suffered death | Reduction of the blood glucose level (in words) ([6]; 0.125 mg/kg oral): significantly reduced the blood glucose level even at low dose of 0.125 mg/kg | Reduction % from control ([6]; 0.125 mg/kg oral): 51.9% | Blood glucose ([6]; 0.125 mg/kg oral): 37.9 ± 5.5 mg % | Reduction % from control ([6]; 0.25 mg/kg oral): 70.4% | Blood glucose ([6]; 0.25 mg/kg oral): 23.3 ± 4.0 mg % | Reduction % from control ([6]; 0.50 mg/kg oral): 77.5% | Blood glucose ([6]; 0.50 mg/kg oral): 17.8 ± 3.6 mg % | Reduction % from control ([6]; 1.0 mg/kg oral): 83.6% | Blood glucose ([6]; 1.0 mg/kg oral): 12.9 ± 1.4 mg % | Reduction % from control ([6]; 2.0 mg/kg oral): 81.6% | Blood glucose ([6]; 2.0 mg/kg oral): 14.5 ± 3.2 mg % | Reduction % from control ([6]; 4.0 mg/kg oral): 81.6% | Blood glucose ([6]; 4.0 mg/kg oral): 14.6 ± 2.9 mg % | Hypoglycemic activity on elevated blood glucose induced by hydrocortisone acetate [7]: exerted its hypoglycemic activity on elevated blood glucose levels in adrenalectomized rats | Effect on serum FFA level (in words) [8]: significantly lowered at 3 hours after the administration (p<0.005) | Blood glucose level [9]: 66.5 ± 6.0 mg/dL | Effect on blood glucose level (in words) [9]: significantly lowered the blood glucose level | Maximum oral dose without death (Acute toxicity in mice; [14]): about 17 g/kg | Mortality (Acute toxicity in mice; oral, up to about 17g/kg): no mice or rats suffered death | Effect of combined use with insulin on blood glucose level [10]: more effective to reduce the blood glucose level than the individual administration | Cholesterol ([11]; 100 mg/kg, 10 consecutive days): 46.1 ± 2.9 mg/dl serum | Cholesterol, relative to control (100) [11, 13]: 77.6 | Effect on serum cholesterol level, 10 days (in words) ([11]; oral, 10 days): significantly reduced | Triglyceride ([12]; 100 mg/kg, 10 consecutive days): 22.1 ± 4.6 mg/dl serum | Triglyceride, relative to control (100) [12, 13]: 40.1 | Effect on serum triglyceride level, 10 days (in words) ([12]; oral, 10 days): significantly reduced

CCCCNC(=O)NS(=O)(=O)c1ccc(C)cc1 [Tolbutamide, reference compound]
Effect on the liver glycogen level [1]: neither tolbutamide or pnenformin exerted such effect | Hypoglycemic effect in alloxan diabetic rats (in words) [2]: could not exert its hypoglycemic effect in the alloxan diabetic rats | Serum FFA levels ([4]; 50.0 mg/kg oral once a day): 45.1 ± 2.7 μ Eq/dl | Reduction % from control ([6]; 15 mg/kg oral): 42.0% | Blood glucose ([6]; 15 mg/kg oral): 45.7 ± 7.3 mg % | Reduction % from control ([6]; 30 mg/kg oral): 79.2% | Blood glucose ([6]; 30 mg/kg oral): 16.4 ± 2.1 mg % | Reduction % from control ([6]; 60 mg/kg oral): 87.9% | Blood glucose ([6]; 60 mg/kg oral): 9.5 ± 0.6 mg % | Blood glucose level [9]: 57.7 ± 12.1 mg/dL | Effect on blood glucose level (in words) [9]: significantly lowered the blood glucose level | Effect of combined use with insulin on blood glucose level [10]: not more effective than the administration of tolbutamide alone
